Results published in patent US12186283B2, “Bismuth-thiol compositions and methods of use” (Microbion Corporation, priority 2018, dated 2025).
≈ marks a conversion by molar mass, not a printed value. Where two headings read alike, the source gives them in different places. Marks after values point to notes of the source that are not given here.

Key:
[1] = system: beta-hemolytic streptococci (S. pyogenes, S. agalactiae); assay: Broth microdilution MIC (Example 11); assay type: cell-based, Streptococcus pyogenes, Streptococcus agalactiae
[2] = system: Candida krusei; assay: Broth microdilution MIC, yeast (Example 13); assay type: cell-based; details: for MIC: Pichia kudriavzevii
[3] = system: Candida spp.; assay: Broth microdilution MIC, yeast (Example 13), group statement and QC; assay type: cell-based; details: C. parapsilosis ATCC 22019, footnote b not given
[4] = system: E. coli ATCC 25922; assay: Broth microdilution MIC, QC organism (Example 13, Table 110); assay type: cell-based, Escherichia coli
Description: MECs were only reported where observed.

[5] = system: Aspergillus spp.; assay: Broth microdilution MIC/MEC, mold (Example 13); assay type: cell-based; details: for MEC (minimum effective concentration): read-out: MEC at 48 hr (MIC0 not observed)
[6] = system: Achromobacter spp. biofilm; assay: Activity against biofilms; details: tested up to 250 μg/mL
[7] = system: Staphylococcus aureus (MRSA); assay: Broth microdilution MIC (Example 11); assay type: cell-based; details: MRSA, LevR, CipR, EryR, OxR
[8] = system: Acinetobacter baumannii; assay: Broth microdilution MIC (Example 12)
[9] = system: Escherichia coli; assay: Broth microdilution MIC (Example 12)
[10] = system: Klebsiella pneumoniae; assay: Broth microdilution MIC (Example 12)
[11] = system: Klebsiella pneumoniae; details: K. pneumoniae ATCC BAA-1705, QC organism; cited from earlier work
[12] = system: Burkholderia cepacia complex; assay: Broth microdilution MIC (Example 10); details: initial MIC testing

## CC(S)C(C)S.[Bi] (stereo not shown) [BisBDT, bismuth-2,3-butanedithiol]
[1]; S. agalactiae MMX 3741, ERY^R CC^R
  MIC: 0.25 µg/mL
[1]; S. agalactiae MMX 3743, ERY^R CC^R
  MIC: 0.25 µg/mL
[1]; S. agalactiae MMX 4077, ERY^R CC^R
  MIC: 0.25 µg/mL
[1]; S. agalactiae MMX 4086, ERY^R CC^R
  MIC: 0.25 µg/mL
[1]; macrolide-resistant S. pyogenes, clindamycin-resistant S. agalactiae
  MIC values (range across isolates): 0.03 to 2 µg/mL
[2]; C. krusei ATCC 6258 (QC, Table 110), 24 hr, footnote b not given
  MIC 24 hr, second value of the pair x/y: 1
[2]; C. krusei ATCC 6258 (QC, Table 110), 48 hr, footnote b not given
  MIC 48 hr, second value of the pair x/y: 4
[2]; C. krusei ATCC 6258 (QC, Table 110), 48 hr, footnote b not given, probably MIC2
  MIC 48 hr, first value of the pair x/y: 1
[2]; read-out: MIC2 (50% inhibition)
  MIC: 0.5 µg/mL
[2]; read-out: MIC2 (50% inhibition), C. krusei MMX 7125, Susceptible
  MIC: 0.5 µg/mL
[2]; read-out: MIC2 (50% inhibition), C. krusei MMX 7155, Susceptible
  MIC: 0.5 µg/mL
[2]; read-out: MIC2 (50% inhibition), C. krusei MMX 7563, Susceptible
  MIC: 0.5 µg/mL
[2]; read-out: MIC2 (50% inhibition), C. krusei MMX 9878, MICA-I, VORI-I
  MIC: 0.5 µg/mL
[3]; 24 hr
  MIC 24 hr, second value of the pair x/y: 2
[3]; 48 hr
  MIC 48 hr, second value of the pair x/y: 4
[4]
  MIC 24 hr: 0.5^a
[5]; 24 h, A. flavus ATCC 22546, 24 hr, read-out: MIC0 24 hr (complete inhibition)
  MIC: 1 µg/mL
[5]; 24 h, A. flavus ATCC 204304, 24 hr, read-out: MIC0 24 hr (complete inhibition)
  MIC: 4 µg/mL
[5]; 24 h, A. flavus MMX 7935, 24 hr, read-out: MIC0 24 hr (complete inhibition)
  MIC: 8 µg/mL
[5]; 24 h, A. fumigatus ATCC 204305, 24 hr, read-out: MIC0 24 hr (complete inhibition)
  MIC: 8 µg/mL
[5]; 24 h, A. fumigatus ATCC MYA-3626, 24 hr, read-out: MIC0 24 hr (complete inhibition)
  MIC: 2 µg/mL
[5]; 24 h, A. fumigatus MMX 5934, 24 hr, read-out: MIC0 24 hr (complete inhibition)
  MIC: 2 µg/mL
[5]; 24 h, A. fumigatus MMX 5939, 24 hr, read-out: MIC0 24 hr (complete inhibition)
  MIC: 2 µg/mL
[5]; 24 h, read-out: MIC0 24 hr (complete inhibition), A. terreus MMX 8229, 24 hr
  MIC: 0.25 µg/mL
[5]; 48 h, A. flavus ATCC 22546, 48 hr, read-out: MIC0 48 hr (complete inhibition)
  MIC: 2 µg/mL
[5]; 48 h, A. flavus ATCC 204304, 48 hr
  MEC (minimum effective concentration): 4 µg/mL
[5]; 48 h, A. flavus MMX 7935, 48 hr, read-out: MIC0 48 hr (complete inhibition)
  MIC: 8 µg/mL
[5]; 48 h, A. fumigatus ATCC 204305, 48 hr
  MEC (minimum effective concentration): 4 µg/mL
[5]; 48 h, A. fumigatus ATCC MYA-3626, 48 hr, read-out: MIC0 48 hr (complete inhibition)
  MIC: 4 µg/mL
[5]; 48 h, A. fumigatus MMX 5934, 48 hr
  MEC (minimum effective concentration): 4 µg/mL
[5]; 48 h, A. fumigatus MMX 5939, 48 hr
  MEC (minimum effective concentration): 4 µg/mL
[5]; 48 h, A. terreus MMX 8229, 48 hr, read-out: MIC0 48 hr (complete inhibition)
  MIC: 1 µg/mL
[5]; A. flavus ATCC 204304 (QC, Table 110), 24 hr
  MIC 24 hr: 4 µg/mL
[5]; A. flavus ATCC 204304 (QC, Table 110), 48 hr, footnote c not given, probably MEC
  MIC 48 hr, marked with footnote c: 4^c
[5]; A. fumigatus ATCC MYA-3626 (QC, Table 110), 24 hr
  MIC 24 hr: 2 µg/mL
[5]; A. fumigatus ATCC MYA-3626 (QC, Table 110), 48 hr
  MIC 48 hr: 4 µg/mL
[5]; read-out: MIC0 48 hr (complete inhibition)
  MIC: 2 µg/mL
[6]
  reduction in viable biofilm cells: 5 log
[7]; S. aureus MMX 5373, CCR
  MIC: ≤0.06 µg/mL
[7]; S. aureus MMX 6311, CCR
  MIC: ≤0.06 µg/mL
[7]; S. aureus MMX 9204
  MIC: ≤0.06 µg/mL
[7]; S. aureus MMX 9205, CCR
  MIC: ≤0.06 µg/mL

## C[C@@H](O)[C@H]1C(=O)N2C(C(=O)O)=C(S[C@@H]3CN[C@H](C(=O)N(C)C)C3)[C@H](C)[C@H]12 [MEM]
[8]; Acinetobacter baumannii CDC 273, ESBL/OXA
  MIC: >8 µg/mL
[8]; Acinetobacter baumannii CDC 274, ESBL/OXA
  MIC: >8 µg/mL
[8]; Acinetobacter baumannii CDC 275, ESBL/OXA
  MIC: >8 µg/mL
[8]; Acinetobacter baumannii CDC 277, ESBL/OXA
  MIC: >8 µg/mL
[8]; Acinetobacter baumannii CDC 284, ESBL/OXA
  MIC: >8 µg/mL
[8]; Acinetobacter baumannii CDC 307, OXA
  MIC: 8 µg/mL (≈ 20.9 µM)
[8]; Acinetobacter baumannii CDC 308, ESBL/OXA
  MIC: 8 µg/mL (≈ 20.9 µM)
[8]; Acinetobacter baumannii CDC 311, OXA
  MIC: >8 µg/mL
[8]; Acinetobacter baumannii CDC 312, OXA
  MIC: 4 µg/mL (≈ 10.4 µM)
[8]; Acinetobacter baumannii CDC 313, ESBL/OXA
  MIC: >8 µg/mL
[8]; Acinetobacter baumannii NCTC 13304, OXA
  MIC: >8 µg/mL
[9]; E. coli ATCC 25922, QC organism
  MIC: ≤0.008 µg/mL
[9]; E. coli ATCC 35218, QC organism
  MIC: ≤0.008 µg/mL
[9]; Escherichia coli ATCC 35218, ESBL
  MIC: ≤0.008 µg/mL
[9]; Escherichia coli ATCC BAA-2471, NDM
  MIC: >8 µg/mL
[9]; Escherichia coli CDC 114, ESBL/KPC
  MIC: 2 µg/mL (≈ 5.22 µM)
[9]; Escherichia coli CDC 118, ESBL/NDM
  MIC: 0.06 µg/mL (≈ 0.156 µM)
[9]; Escherichia coli CDC 435, NDM
  MIC: >8 µg/mL
[9]; Escherichia coli CDC 451, KPC
  MIC: 1 µg/mL (≈ 2.61 µM)
[9]; Escherichia coli CDC 503, ESBL/NDM
  MIC: 8 µg/mL (≈ 20.9 µM)
[9]; Escherichia coli MMX 5745, KPC
  MIC: 2 µg/mL (≈ 5.22 µM)
[9]; Escherichia coli MMX 5755, ESBL
  MIC: 0.015 µg/mL (≈ 0.0391 µM)
[9]; Escherichia coli MMX 5756, ESBL
  MIC: ≤0.008 µg/mL
[9]; Escherichia coli MMX 5758, ESBL
  MIC: ≤0.008 µg/mL
[10]; K. pneumoniae ATCC BAA-1705, QC organism
  MIC: 8 µg/mL (≈ 20.9 µM)
[10]; Klebsiella pneumoniae ATCC BAA-1705, ESBL/KPC
  MIC: 8 µg/mL (≈ 20.9 µM)
[10]; Klebsiella pneumoniae CDC 112, KPC
  MIC: >8 µg/mL
[10]; Klebsiella pneumoniae CDC 113, ESBL/KPC
  MIC: >8 µg/mL
[10]; Klebsiella pneumoniae CDC 115, ESBL/KPC
  MIC: >8 µg/mL
[10]; Klebsiella pneumoniae CDC 120, ESBL/KPC
  MIC: >8 µg/mL
[10]; Klebsiella pneumoniae CDC 126, ESBL/KPC
  MIC: 4 µg/mL (≈ 10.4 µM)
[10]; Klebsiella pneumoniae CDC 129, ESBL/KPC
  MIC: 8 µg/mL (≈ 20.9 µM)
[10]; Klebsiella pneumoniae CDC 135, ESBL/VIM
  MIC: 1 µg/mL (≈ 2.61 µM)
[10]; Klebsiella pneumoniae CDC 138, ESBL/NDM
  MIC: >8 µg/mL
[10]; Klebsiella pneumoniae CDC 158, ESBL/NDM/OXA
  MIC: >8 µg/mL
[10]; Klebsiella pneumoniae MMX 9029, ESBL
  MIC: 0.015 µg/mL (≈ 0.0391 µM)
[11]
  MIC, QC range: (8-64) μg/mL
[12]; B. cenocepacia isolate 0548 (CIP-R)
  MIC: 4 µg/mL (≈ 10.4 µM)
[12]; B. cenocepacia isolate 0813 (CPI-I)
  MIC: 2 µg/mL (≈ 5.22 µM)
[12]; B. cenocepacia isolate 1631
  MIC: 4 µg/mL (≈ 10.4 µM)
[12]; B. cenocepacia isolate 1783
  MIC: 4 µg/mL (≈ 10.4 µM)
[12]; B. cenocepacia isolate 8555
  MIC: 4 µg/mL (≈ 10.4 µM)
[12]; B. cepacia isolate 0546
  MIC: 4 µg/mL (≈ 10.4 µM)
[12]; B. cepacia isolate 0547
  MIC: 2 µg/mL (≈ 5.22 µM)
[12]; B. cepacia isolate 1793
  MIC: 4 µg/mL (≈ 10.4 µM)
[12]; B. cepacia isolate 1794
  MIC: 4 µg/mL (≈ 10.4 µM)
[12]; B. cepacia isolate 9040
  MIC: 4 µg/mL (≈ 10.4 µM)
[12]; B. multivorans isolate 1580 (CIP-R)
  MIC: 2 µg/mL (≈ 5.22 µM)
[12]; B. multivorans isolate 1791
  MIC: 4 µg/mL (≈ 10.4 µM)
[12]; B. multivorans isolate 1795 (MEM-I, CIP-R)
  MIC: 8 µg/mL (≈ 20.9 µM)
[12]; B. multivorans isolate 5665 (CIP-I)
  MIC: 2 µg/mL (≈ 5.22 µM)
[12]; B. multivorans isolate 8952 (CIP-I)
  MIC: 2 µg/mL (≈ 5.22 µM)
